Structures can show the parent of a compound that is named as a salt.

The experiment addresses T1, BRD4 proteins (Homo sapiens, UniProt O60885).
T1 construct: endogenous in cells; host or cells: MM.1S
As to the kind of experiment: Degradation of BRD4 protein in MM.1S cell lines (Western blot densitometry). In kind it is cell-based. Conditions: MM.1S cells, 10 μM, 24 hours. The gist of the method: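 MM.1S cells in RPMI-1640 with 10% FBS were treated with each degrader at 10 μM for 24 h. RIPA lysates were analysed by SDS-PAGE/Western blot with β-actin as reference, and BRD4 band densitometry was scored as reduction <40% (+), 40-<70% (++) or ≥70% (+++).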
Background: Immunoblotting shows a protein as a band on a membrane.
With `Cc1sc2c(c1C)C(c1ccc(Cl)cc1)=N[C@@H](CC(=O)NCCC#Cc1ccc(C#CCCN)o1)c1nnc(C)n1-2.Cl` [4-147′, (S)—N-(4-(5-(4-aminobut-1-yn-1-yl)furan-2-yl)but-3-yn-1-yl)-2-(4-(4-chlorophenyl)-2,3,9-trimethyl-6H-thieno[3,2-f][1,2,4]triazolo[4,3-a][1,4]diazepin-6-yl)acetamide hydrochloride], the “BRD4 degrading capacity (%)” value is listed as “++ (the degrading capacity was reduced by 40% to 70% (exclusive of 70))”. With `Cc1sc2c(c1C)C(c1ccc(Cl)cc1)=N[C@@H](CC(=O)NCCCCCCCNC(=O)c1ccc(-c3ccc(C#CCN)cc3)o1)c1nnc(C)n1-2.Cl` [5-111′, (S)-5-(4-(3-aminoprop-1-yn-1-yl)phenyl)-N-(7-(2-(4-(4-chlorophenyl)-2,3,9-trimethyl-6H-thieno[3,2-f][1,2,4]triazolo[4,3-a][1,4]diazepin-6-yl)acetamido)heptyl)furan-2-carboxamide hydrochloride] the entry was “++ (the degrading capacity was reduced by 40% to 70% (exclusive of 70))”; with `Cc1sc2c(c1C)C(c1ccc(Cl)cc1)=N[C@@H](CC(=O)NCC#Cc1ccc(C#CCON)s1)c1nnc(C)n1-2.Cl` [4-223′, (S)—N-(3-(5-(3-(aminooxy)prop-1-yn-1-yl)thiophen-2-yl)prop-2-yn-1-yl)-2-(4-(4-chlorophenyl)-2,3,9-trimethyl-6H-thieno[3,2-f][1,2,4]triazolo[4,3-a][1,4]diazepin-6-yl)acetamide hydrochloride], “++ (the degrading capacity was reduced by 40% to 70% (exclusive of 70))”; with `Cc1sc2c(c1C)C(c1ccc(Cl)cc1)=N[C@@H](CC(=O)NCCC(=O)Nc1ccc(C#CCN)cc1)c1nnc(C)n1-2.Cl` [4-124′, (S)—N-(4-(3-aminoprop-1-yn-1-yl)phenyl)-3-(2-(4-(4-chlorophenyl)-2,3,9-trimethyl-6H-thieno[3,2-f][1,2,4]triazolo[4,3-a][1,4]diazepin-6-yl)acetamido)propanamide hydrochloride], “+++ (the degrading capacity was reduced by 70% or more)”.

Consider `COC(=O)c1ccc(NCC2CCN(C(=O)C[C@@H]3N=C(c4ccc(Cl)cc4)c4c(sc(C)c4C)-n4c(C)nnc43)CC2)cc1C#CCN` [5-85′, methyl (S)-2-(3-aminoprop-1-yn-1-yl)-4-(((1-(2-(4-(4-chlorophenyl)-2,3,9-trimethyl-6H-thieno[3,2-f][1,2,4]triazolo[4,3-a][1,4]diazepin-6-yl)acetyl)piperidin-4-yl)methyl)amino)benzoate trifluoroacetic acid], for which the “BRD4 degrading capacity (%)” value is listed as “+++ (the degrading capacity was reduced by 70% or more)”. For `Cc1sc2c(c1C)C(c1ccc(Cl)cc1)=N[C@@H](CC(=O)NCCCNC(=O)c1ccc(C#CCN)o1)c1nnc(C)n1-2.Cl` [4-166′], the “BRD4 degrading capacity (%)” value is listed as “+++ (the degrading capacity was reduced by 70% or more)”.

`Cc1sc2c(c1C)C(c1ccc(Cl)cc1)=N[C@@H](CC(=O)Nc1ccc(C#CCN)c(COP(=O)(O)O)c1)c1nnc(C)n1-2` [3-8′, (S)-2-(3-aminoprop-1-yn-1-yl)-5-(2-(4-(4-chlorophenyl)-2,3,9-trimethyl-6H-thieno[3,2-f][1,2,4]triazolo[4,3-a][1,4]diazepin-6-yl)acetamido)benzyl dihydrogen phosphate trifluoroacetic acid]: the “BRD4 degrading capacity (%)” value is listed as “+ (the degrading capacity of each BRD4 degrader was reduced by less than 40%)”. With `Cc1sc2c(c1C)C(c1ccc(Cl)cc1)=N[C@@H](CC(=O)N1CCN(c3ccc(C#CCN)cc3)CC1)c1nnc(C)n1-2.Cl` [4-226′, (S)-1-(4-(4-(3-aminoprop-1-yn-1-yl)phenyl)piperazin-1-yl)-2-(4-(4-chlorophenyl)-2,3,9-trimethyl-6H-thieno[3,2-f][1,2,4]triazolo[4,3-a][1,4]diazepin-6-yl)ethan-1-one hydrochloride], the “BRD4 degrading capacity (%)” value is “+++ (the degrading capacity was reduced by 70% or more)”. With `Cc1sc2c(c1C)C(c1ccc(Cl)cc1)=N[C@@H](CC(=O)NCCCCC(=O)Nc1ccc(C#CCN)c(CO)c1)c1nnc(C)n1-2.Cl` [5-9′, (S)—N-(4-(3-aminoprop-1-yn-1-yl)-3-(hydroxymethyl)phenyl)-5-(2-(4-(4-chlorophenyl)-2,3,9-trimethyl-6H-thieno[3,2-f][1,2,4]triazolo[4,3-a][1,4]diazepin-6-yl)acetamido)pentanamide hydrochloride] the entry was “++ (the degrading capacity was reduced by 40% to 70% (exclusive of 70))”; with `CCOC(=O)c1ccc(NC(=O)CCCNC(=O)C[C@@H]2N=C(c3ccc(Cl)cc3)c3c(sc(C)c3C)-n3c(C)nnc32)cc1C#CCN.Cl` [5-1′, ethyl (S)-2-(3-aminoprop-1-yn-1-yl)-4-(4-(2-(4-(4-chlorophenyl)-2,3,9-trimethyl-6H-thieno[3,2-f][1,2,4]triazolo[4,3-a][1,4]diazepin-6-yl)acetamido)butanamido)benzoate hydrochloride], “+++ (the degrading capacity was reduced by 70% or more)”. As for `Cc1sc2c(c1C)C(c1ccc(Cl)cc1)=N[C@@H](CC(=O)NCCC(=O)Nc1ccc(C#CCN)c(CO)c1)c1nnc(C)n1-2.Cl` [4-125′, (S)—N-(4-(3-aminoprop-1-yn-1-yl)-3-(hydroxymethyl)phenyl)-3-(2-(4-(4-chlorophenyl)-2,3,9-trimethyl-6H-thieno[3,2-f][1,2,4]triazolo[4,3-a][1,4]diazepin-6-yl)acetamido)propanamide hydrochloride], the “BRD4 degrading capacity (%)” value is given as “+++ (the degrading capacity was reduced by 70% or more)”. With `COC(=O)c1ccc(N2CC3(CN(C(=O)C[C@@H]4N=C(c5ccc(Cl)cc5)c5c(sc(C)c5C)-n5c(C)nnc54)C3)C2)cc1C#CCNC(=O)OC(C)OC(=O)C(C)C` (stereo partly drawn) [5-162′, methyl 4-(6-(2-((S)-4-(4-chlorophenyl)-2,3,9-trimethyl-6H-thieno[3,2-f][1,2,4]triazolo[4,3-a][1,4]diazepin-6-yl)acetyl)-2,6-diazaspiro[3.3]heptan-2-yl)-2-(3-(((1-(isobutyryloxy)ethoxy)carbonyl)amino)prop-1-yn-1-yl)benzoate] the entry was “+++ (the degrading capacity was reduced by 70% or more)”; with `COC(=O)c1ccc(NC(=O)CCNC(=O)C2CCN(C(=O)C[C@@H]3N=C(c4ccc(Cl)cc4)c4c(sc(C)c4C)-n4c(C)nnc43)CC2)cc1C#CCN.Cl` [5-25′, methyl (S)-2-(3-aminoprop-1-yn-1-yl)-4-(3-(1-(2-(4-(4-chlorophenyl)-2,3,9-trimethyl-6H-thieno[3,2-f][1,2,4]triazolo[4,3-a][1,4]diazepin-6-yl)acetyl)piperidine-4-carboxamido)propanamido)benzoate hydrochloride], “+++ (the degrading capacity was reduced by 70% or more)”; with `COC(=O)c1ccc(NC(=O)CCCOC(=O)C[C@@H]2N=C(c3ccc(Cl)cc3)c3c(sc(C)c3C)-n3c(C)nnc32)cc1C#CCN` [5-115′, methyl (S)-2-(3-aminoprop-1-yn-1-yl)-4-(4-(2-(4-(4-chlorophenyl)-2,3,9-trimethyl-6H-thieno[3,2-f][1,2,4]triazolo[4,3-a][1,4]diazepin-6-yl)acetoxy)butanamido)benzoate hydrochloride], “+++ (the degrading capacity was reduced by 70% or more)”.

(Values after patent US20240425517A1, “NOVEL COMPOUND FOR DEGRADATION OF TARGET PROTEIN OR POLYPEPTIDE BY POLYUBIQUITINATION” (PRAZER THERAPEUTICS INC., priority 2021, published 2024).)
